PubChem BioAssay AID1963873 (Molecular Pharmacology Branch, DTP, NCI, 2024)

Tested on: 276233-004-R-J1-PDC KRAS spheroids with HUVEC/MSC, viability
Experiment: Anticancer human tumor 276233-004-R-J1-PDC patient-derived colon adenocarcinoma cell line growth inhibition [KRAS2]
Conditions: for viability, T/C: stronger effect = lower value
In short: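 KRAS-mutant tumor cells were grown as spheroids with HUVEC endothelial cells and human MSCs as stroma. Targeted agents were tested alone and with KRAS pathway inhibitors. Doses started at or near clinical Cmax, or 10 microM, descending half-log.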

[1] = curve of first compound, second compound 0.1 µM
[2] = curve of first compound, second compound 0.316 µM
[3] = curve of first compound, second compound 1 µM
[4] = curve of first compound, second compound 3.16 µM
[5] = curve of first compound, second compound 10 µM
[6] = second compound 0.1 µM, first compound 0.0316 µM
[7] = second compound 0.1 µM, first compound 0.1 µM
[8] = second compound 0.1 µM, first compound 0.316 µM
[9] = second compound 0.1 µM, first compound 1 µM
[10] = second compound 0.1 µM, first compound 3.16 µM
[11] = second compound 0.1 µM, first compound 10 µM
[12] = second compound 0.316 µM, first compound 0.0316 µM
[13] = second compound 0.316 µM, first compound 0.1 µM
[14] = second compound 0.316 µM, first compound 0.316 µM
[15] = second compound 0.316 µM, first compound 1 µM
[16] = second compound 0.316 µM, first compound 3.16 µM
[17] = second compound 0.316 µM, first compound 10 µM
[18] = second compound 1 µM, first compound 0.0316 µM
[19] = second compound 1 µM, first compound 0.1 µM
[20] = second compound 1 µM, first compound 0.316 µM
[21] = second compound 1 µM, first compound 1 µM
[22] = second compound 1 µM, first compound 3.16 µM
[23] = second compound 1 µM, first compound 10 µM
[24] = second compound 3.16 µM, first compound 0.0316 µM
[25] = second compound 3.16 µM, first compound 0.1 µM
[26] = second compound 3.16 µM, first compound 0.316 µM
[27] = second compound 3.16 µM, first compound 1 µM
[28] = second compound 3.16 µM, first compound 3.16 µM
[29] = second compound 3.16 µM, first compound 10 µM
[30] = second compound 10 µM, first compound 0.0316 µM
[31] = second compound 10 µM, first compound 0.1 µM
[32] = second compound 10 µM, first compound 0.316 µM
[33] = second compound 10 µM, first compound 1 µM
[34] = second compound 10 µM, first compound 3.16 µM
[35] = second compound 10 µM, first compound 10 µM
[36] = second compound 0.1 µM, first compound 0.01 µM
[37] = second compound 0.316 µM, first compound 0.01 µM
[38] = second compound 1 µM, first compound 0.01 µM
[39] = second compound 3.16 µM, first compound 0.01 µM
[40] = second compound 10 µM, first compound 0.01 µM
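Further: cells exposed to agents for seven days before viability read.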
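Wherever viability, T/C is given: 100% = DMSO vehicle control wells and lower values mean fewer viable cells.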

Row | SMILES | IC50 [1] | IC50 [2] | IC50 [3] | IC50 [4] | IC50 [5] | viability, T/C [6] | viability, T/C [7] | viability, T/C [8] | viability, T/C [9] | viability, T/C [10] | viability, T/C [12] | viability, T/C [13] | viability, T/C [14] | viability, T/C [15] | viability, T/C [16] | viability, T/C [18] | viability, T/C [19] | viability, T/C [20] | viability, T/C [21] | viability, T/C [22] | other results
1 | CC1(C)CCC(CN2CCN(c3ccc(C(=O)NS(=O)(=O)c4ccc(NCC5CCOCC5)c([N+](=O)[O-])c4)c(Oc4cnc5[nH]ccc5c4)c3)CC2)=C(c2ccc(Cl)cc2)C1 + COc1cc2nc(C)nc(NC(C)c3cc(N)cc(C(F)(F)F)c3)c2cc1OC1CCOC1 | > 10 µM | > 10 µM | > 10 µM | > 10 µM | < 0.0316 µM | 97.5% | 97% | 73.6% | 95.5% | 68.8% | 104% | 84.8% | 95.9% | 96.3% | 67% | 102% | 87.3% | 89.6% | 87.3% | 70.1% | viability, T/C [11]: 69.7%; viability, T/C [17]: 72.8%; viability, T/C [23]: 60.6%; viability, T/C [24]: 79.1%; viability, T/C [25]: 120%; viability, T/C [26]: 81.8%; viability, T/C [27]: 103%; viability, T/C [28]: 78.3%; viability, T/C [29]: 57.8%; viability, T/C [30]: 23.9%; viability, T/C [31]: 31.8%; viability, T/C [32]: 25%; viability, T/C [33]: 41.3%; viability, T/C [34]: 38.8%; viability, T/C [35]: 54.8%
2 | CC(C)n1nc(-c2ccc3oc(N)nc3c2)c2c(N)ncnc21 | – | – | – | – | – | – | – | – | – | – | – | – | – | – | – | – | – | – | – | – | viability, T/C (compound 0.000316 µM): 98.1% [middle of 5 runs]; viability, T/C (compound 0.001 µM): 86.1% [middle of 5 runs]; viability, T/C (compound 0.01 µM): 66.5% [middle of 5 runs]; viability, T/C (compound 0.0316 µM): 60.8% [middle of 5 runs]; viability, T/C (compound 0.1 µM): 59.6% [middle of 5 runs]; IC50 (curve of compound): > 0.1 µM
3 | COc1cc2nccc(Oc3ccc(NC(=O)C4(C(=O)Nc5ccc(F)cc5)CC4)cc3)c2cc1OC + CNCc1ccccc1-c1csc(C(C)Nc2nc(C)nc3cc(OC)c(OC)cc23)c1 | > 10 µM | > 10 µM | 0.595 µM | < 0.0316 µM | < 0.0316 µM | 82.3% | 109% | 82.8% | 88.3% | 80.9% | 83.3% | 85% | 85.8% | 109% | 83.2% | 74.8% | 58.8% | 68.7% | 35.6% | 15% | viability, T/C [11]: 88.2%; viability, T/C [17]: 67.2%; viability, T/C [23]: 41.5%; viability, T/C [24]: 0.61%; viability, T/C [25]: 2.67%; viability, T/C [26]: 0.63%; viability, T/C [27]: 0.45%; viability, T/C [28]: 0.77%; viability, T/C [29]: 0.33%; viability, T/C [30]: 0.64%; viability, T/C [31]: 0.19%; viability, T/C [32]: 0.57%; viability, T/C [33]: 0.15%; viability, T/C [34]: 0.14%; viability, T/C [35]: 1.46%
4 | CC(C)NCC(C(=O)N1CCN(c2ncnc3c2C(C)CC3O)CC1)c1ccc(Cl)cc1 (stereo unspecified) | – | – | – | – | – | – | – | – | – | – | – | – | – | – | – | – | – | – | – | – | viability, T/C (compound 0.0316 µM): 91% [middle of 5 runs]; viability, T/C (compound 0.1 µM): 91.5% [middle of 5 runs]; viability, T/C (compound 0.316 µM): 79.8% [middle of 5 runs]; viability, T/C (compound 10 µM): 73.1% [middle of 5 runs]; IC50 (curve of compound): > 10 µM
5 | CC(=O)OC12COC1CC(O)C1(C)C(=O)C(O)C3=C(C)C(OC(=O)C(O)C(NC(=O)OC(C)(C)C)c4ccccc4)CC(O)(C(OC(=O)c4ccccc4)C21)C3(C)C (stereo unspecified) + COc1cc2nc(C)nc(NC(C)c3cc(N)cc(C(F)(F)F)c3)c2cc1OC1CCOC1 | > 3.16 µM | > 3.16 µM | > 3.16 µM | > 3.16 µM | > 3.16 µM | 75.9% | 83.1% | 91.8% | 86.1% | 94% | 80.7% | 72% | 65.4% | 78.3% | 71.7% | 73.3% | 82% | 76.4% | 92.2% | 78.5% | viability, T/C [36]: 86.8%; viability, T/C [37]: 75.1%; viability, T/C [38]: 73.4%; viability, T/C [39]: 78.3%; viability, T/C [24]: 70.5%; viability, T/C [25]: 58.9%; viability, T/C [26]: 61.2%; viability, T/C [27]: 69.3%; viability, T/C [28]: 66.3%; viability, T/C [40]: 64.3%; viability, T/C [30]: 61.2%; viability, T/C [31]: 73.3%; viability, T/C [32]: 72.7%; viability, T/C [33]: 78.8%; viability, T/C [34]: 77.8%
6 | CC1COCCN1c1cc(-c2ccnn2C)c2ccnc(-c3ccn[nH]3)c2n1 (stereo unspecified) + COc1cc2nc(C)nc(NC(C)c3cc(N)cc(C(F)(F)F)c3)c2cc1OC1CCOC1 | 1.47 µM | 0.706 µM | 1.86 µM | 0.474 µM | < 0.01 µM | 90.3% | 75.8% | 71.4% | 54.5% | 40.6% | 86.1% | 74.2% | 58.9% | 42.6% | 48.6% | 82% | 76.9% | 64.8% | 53.6% | 46.3% | viability, T/C [36]: 81.3%; viability, T/C [37]: 80%; viability, T/C [38]: 94.5%; viability, T/C [39]: 80.6%; viability, T/C [24]: 82.6%; viability, T/C [25]: 70%; viability, T/C [26]: 55.8%; viability, T/C [27]: 37.5%; viability, T/C [28]: 48.4%; viability, T/C [40]: 37.4%; viability, T/C [30]: 46.5%; viability, T/C [31]: 45.8%; viability, T/C [32]: 34.1%; viability, T/C [33]: 36.9%; viability, T/C [34]: 24.8%
